From PubChem BioAssay (NCI)
“And” between values parts separate entries of the source, which are not always exact repeats. Identical values can stand only once.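 Briefly, cells in 96-well plates were exposed to five compound concentrations for 48 h, and endpoints were estimated by linear interpolation. GI50: concentration for 50% inhibition of growth. At the TGI there is no net growth.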

Key:
Assay in all cases: NCI-60 cell line screen, 48 h
CAKI-1 renal = tested on: CAKI-1 renal
PC-3 prostate = tested on: PC-3 prostate
OVCAR-4 ovarian = tested on: OVCAR-4 ovarian
BT-549 breast = tested on: BT-549 breast
ACHN renal = tested on: ACHN renal
NCI/ADR-RES ovarian = tested on: NCI/ADR-RES ovarian
OVCAR-3 ovarian = tested on: OVCAR-3 ovarian
RPMI-8226 leukemia = tested on: RPMI-8226 leukemia
786-0 renal = tested on: 786-0 renal
MDA-MB-435 = tested on: MDA-MB-435
HOP-92 NSCLC = tested on: HOP-92 NSCLC

Row | Compound | TGI (CAKI-1 renal) | TGI (PC-3 prostate) | TGI (OVCAR-4 ovarian) | TGI (BT-549 breast) | TGI (ACHN renal) | TGI (NCI/ADR-RES ovarian) | TGI (OVCAR-3 ovarian) | TGI (RPMI-8226 leukemia) | TGI (786-0 renal) | TGI (MDA-MB-435) | TGI (HOP-92 NSCLC) | GI50 (PC-3 prostate) | GI50 (NCI/ADR-RES ovarian) | GI50 (RPMI-8226 leukemia) | GI50 (HOP-92 NSCLC) | GI50 (MDA-MB-435)
1 | CCOC(=O)/C=C1\Nc2ccccc2C12CCc1c([nH]c3ccccc13)C2C(=O)OCC (stereo not given) | > 100 µM | > 100 µM | > 100 µM | > 100 µM | > 100 µM | > 100 µM | > 100 µM | 61.9 µM | > 100 µM | 40.5 µM | – | – | – | – | – | –
2 | C#CC(C)(C)Oc1cc(OC)c2c(=O)c3ccccc3n(C)c2c1 | – | 40.8 µM | 41.8 µM | – | 64.6 µM | 83.4 µM | – | 25 µM | > 100 µM | 26.9 µM | – | – | – | – | – | –
3 | COc1cc(C2C(Cl)C(=O)N2c2ccc(Br)cc2)cc(I)c1O (stereo not given) | > 100 µM | > 100 µM | > 100 µM | > 100 µM | > 100 µM | > 100 µM | > 100 µM | > 100 µM | > 100 µM | > 100 µM | – | – | – | – | – | –
4 | CN(C)c1ccc(/C=C(\NC(=O)c2ccccc2)C(=O)Nc2ccccc2C(=O)NN2C(=O)CSC2c2ccc(N(C)C)cc2)cc1 (stereo not given) | > 100 µM | > 100 µM | – | > 100 µM | > 100 µM | > 100 µM | > 100 µM | > 100 µM | > 100 µM | > 100 µM | > 100 µM | – | – | – | – | –
5 | COC(=O)Cc1c(C2=Nc3ccccc3C2(O)CC(=O)OC)[nH]c2ccccc12 (stereo not given) | 71 µM | > 100 µM | – | > 100 µM | > 100 µM | > 100 µM | > 100 µM | > 100 µM | > 100 µM | > 100 µM | > 100 µM | – | – | – | – | –
6 | COc1cc2c3c(n(CCCNCCO)c(=O)c2cc1OC)-c1cc2c(cc1C3=O)OCO2 | – | – | – | 7.97 µM | 0.176 µM and 0.369 µM | > 100 µM | 5.3 µM | > 100 µM | 0.118 µM and 0.0216 µM | – | 2.77 µM and 3.56 µM | 10.2 µM | 0.295 µM | 0.173 µM | 0.831 µM and 0.102 µM | 0.528 µM and 1.34 µM
7 | Cn1c(N)c(/C=N/NC(=O)CC#N)c(=O)n(C)c1=O | > 100 µM | > 100 µM | > 100 µM | > 100 µM | > 100 µM | > 100 µM | > 100 µM | > 100 µM | > 100 µM | > 100 µM | – | – | – | – | – | –
8 | CC(C)=CC(=O)O[C@@H]1CC(C)(C)CC2C3=CCC4[C@]56CC[C@](O)(OC5)C(C)(C)C6CC[C@@]4(C)C3(C)CC[C@]21C(=O)O (stereo not given in full) | > 100 µM | > 100 µM | > 100 µM | > 100 µM | 82.8 µM | > 100 µM | > 100 µM | > 100 µM | > 100 µM | > 100 µM | – | – | – | – | – | –
9 | CC(C)(CN1CCCCC1)C(=O)CC(SCCS(=O)(=O)O)c1ccc(Br)cc1 (stereo not given) | 7.2 µM | – | 4.06 µM | – | 3.1 µM | – | – | 4.66 µM | 2.71 µM | – | 2.08 µM | – | – | – | – | –
10 | CC1=NNC(N)=N/C1=C/C(Sc1ccc(Cl)cc1)c1cccs1 (stereo not given) | 53.9 µM | 27.8 µM | 76.6 µM | > 100 µM | 42.5 µM | > 100 µM | – | 64.3 µM | 82.4 µM | 55.3 µM | > 100 µM | – | – | – | – | –
11 | Cc1nc2c(n1Cc1ccc(Cl)cc1)C(=O)c1ccccc1C2=O | – | – | > 75 µM | – | > 75 µM | – | > 75 µM | – | > 75 µM | – | – | – | – | – | – | –
12 | COc1ccc(Cn2nc(OCc3ccccn3)c3cc([N+](=O)[O-])ccc32)cc1 | > 100 µM | > 100 µM | – | > 100 µM | > 100 µM | > 100 µM | > 100 µM | > 100 µM | > 100 µM | > 100 µM | – | – | – | – | – | –
13 | CN(C)c1ccc(-c2nc(-c3cc4c(ccc5ccccc54)oc3=O)cs2)cc1 | > 100 µM | > 100 µM | > 100 µM | > 100 µM | > 100 µM | > 100 µM | – | > 100 µM | > 100 µM | > 100 µM | > 100 µM | – | – | – | – | –
14 | Cc1ccc(S(=O)(=O)Nn2c(-c3ccccc3)c(C#N)c(-c3ccc([N+](=O)[O-])cc3)c(C#N)c2=O)cc1 | > 100 µM | > 100 µM | > 100 µM | > 100 µM | > 100 µM | > 100 µM | – | 64.3 µM | > 100 µM | > 100 µM | > 100 µM | – | – | – | – | –
15 | O=C1c2cc(Cl)ccc2-n2c(noc2=O)C2CSCN12 (stereo not given) | > 100 µM | > 100 µM | > 100 µM | > 100 µM | > 100 µM | > 100 µM | > 100 µM | > 100 µM | > 100 µM | > 100 µM | – | – | – | – | – | –
16 | COc1cc(C(=O)Nc2nnc(S(N)(=O)=O)s2)cc(OC)c1OC | > 100 µM | – | > 100 µM | > 100 µM | > 100 µM | > 100 µM | > 100 µM | > 100 µM | > 100 µM | > 100 µM | > 100 µM | – | – | – | – | –
17 | Cc1ccc(S(=O)(=O)C(C#N)c2nc3ccccc3nc2-n2cccn2)cc1 (stereo not given) | – | – | > 100 µM | – | > 100 µM | – | > 100 µM | > 100 µM | > 100 µM | – | > 100 µM | – | – | – | – | –
18 | CCCCCCCCCCCCCCCCOCC(CC(F)(F)P(=O)(O)O)OC(C)=O (stereo not given) | > 50 µM | > 50 µM | – | > 50 µM | > 50 µM | > 50 µM | > 50 µM | > 50 µM | > 50 µM | > 50 µM | > 50 µM | – | – | – | – | –
19 | C/C(=N\N=C(N)N)c1c(C(=O)OCCCCCCOC(=O)c2nc3sccn3c2/C(C)=N/N=C(N)N)nc2sccn12 | > 100 µM | > 100 µM | > 100 µM | > 100 µM | > 100 µM | > 100 µM | – | > 100 µM | > 100 µM | > 100 µM | > 100 µM | – | – | – | – | –
20 | O=[N+]([O-])c1ccc2nc3ccc([N+](=O)[O-])cn3c2c1 | 89.2 µM | > 100 µM | > 100 µM | > 100 µM | > 100 µM | > 100 µM | – | – | > 100 µM | > 100 µM | > 100 µM | – | – | – | – | –
21 | O=C(c1cccs1)N(C(=S)N1CCN(c2ccccc2)CC1)c1ccccc1 | > 100 µM | – | > 100 µM | – | > 100 µM | – | > 100 µM | > 100 µM | > 100 µM | – | > 100 µM | – | – | – | – | –
22 | O=C1NC(=O)/C(=C\c2ccncc2)N1 | > 100 µM | > 100 µM | > 100 µM | > 100 µM | > 100 µM | > 100 µM | > 100 µM | – | > 100 µM | > 100 µM | > 100 µM | – | – | – | – | –
